# Source: paper PMC8228075, “In Vitro and In Silico Characterization of G-Protein Coupled Receptor (GPCR) Targets of Phlorofucofuroeckol-A and Dieckol” (Marine Drugs, 2021)
# Values joined by “and” are separate entries in the source; they are usually repeats but may differ in a detail not shown here. Identical values can stand only once.
# How the values were obtained:
# Type in all cases: cell-based
# [1] = target: T1, Alpha-2C adrenergic receptor (hα2CAR) (Homo sapiens, UniProt P18825); test: hα2CAR functional agonist assay (cAMP, HTRF, CHO cells); settings: for Agonist Effect: % of control response to 1 µM epinephrine; for EC50: agonist effect, mean ± SD, n = 3
# T1 construct: host or cells: CHO cells
# T1 sequence (P18825 1-462): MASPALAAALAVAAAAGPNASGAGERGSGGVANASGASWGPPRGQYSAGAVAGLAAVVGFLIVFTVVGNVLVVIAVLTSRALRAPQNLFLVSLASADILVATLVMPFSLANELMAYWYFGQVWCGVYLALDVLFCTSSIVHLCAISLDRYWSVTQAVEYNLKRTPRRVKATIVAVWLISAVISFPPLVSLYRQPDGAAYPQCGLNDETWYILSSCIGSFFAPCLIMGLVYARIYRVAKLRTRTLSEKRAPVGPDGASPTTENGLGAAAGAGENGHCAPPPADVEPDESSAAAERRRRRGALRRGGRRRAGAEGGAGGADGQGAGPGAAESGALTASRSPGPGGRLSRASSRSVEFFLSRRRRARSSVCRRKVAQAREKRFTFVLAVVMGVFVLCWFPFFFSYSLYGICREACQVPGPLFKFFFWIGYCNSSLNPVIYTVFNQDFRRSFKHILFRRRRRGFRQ
# Description: (§1) The in-house assay protocol and experimental conditions are reported in our previous reports. The functional effect of dieckol and PFF-A was characterized based on their modulation effect on cytosolic Ca^2+ ion mobilization using a fluorimetric detection method or by measuring their effect on cAMP modulation using homogeneous time-resolved fluorescence (HTRF) detection.
# (§2) Functional activity of phlorotannins over hA2AR, hα2CAR, hCB1R, GLP-1R, and h5-HT1BR was determined by measuring their effects on cAMP production by the HTRF detection method using transected cells expressing human cloned receptors.
# After 10 min at 37 °C, the cells were lysed and the fluorescence acceptor (D2-labeled cAMP) and fluorescence donor (anti-cAMP antibody labeled with europium cryptate) were added.
# [2] = target: T2, h5-HT1AR (Homo sapiens, UniProt P08908); test: h5-HT1AR functional antagonist assay (Ca2+ mobilization, Ba/F3 cells); settings: for Antagonist Effect: 50 µM, % inhibition of control response to 30 nM serotonin; for IC50: antagonist effect, mean ± SD, n = 3
# T2 construct: host or cells: Ba/F3-5HT1AR cells
# T2 sequence (P08908 1-422): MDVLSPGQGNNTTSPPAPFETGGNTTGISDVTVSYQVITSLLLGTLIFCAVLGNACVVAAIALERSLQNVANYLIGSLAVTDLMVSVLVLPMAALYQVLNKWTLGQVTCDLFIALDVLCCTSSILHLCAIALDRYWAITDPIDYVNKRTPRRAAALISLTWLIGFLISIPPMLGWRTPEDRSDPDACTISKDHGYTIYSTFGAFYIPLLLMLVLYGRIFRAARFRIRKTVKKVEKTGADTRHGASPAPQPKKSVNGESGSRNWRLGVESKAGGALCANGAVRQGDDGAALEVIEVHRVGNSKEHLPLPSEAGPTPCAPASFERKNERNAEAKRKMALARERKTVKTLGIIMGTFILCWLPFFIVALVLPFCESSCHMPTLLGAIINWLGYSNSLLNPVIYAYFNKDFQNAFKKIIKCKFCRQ
# Description: as §1
# In brief, Ba/F3-5HT1AR cells were first suspended in HBSS buffer (Invitrogen, Carlsbad, CA, USA) complemented with 20 mM HEPES buffer (pH 7.4). Then, the cells were distributed into microplates at a density of 1 × 10^6 cells/well. Subsequently, fluorescent probe (Fluo8, AAT Bioquest) mixed with probenecid in HBSS buffer (Invitrogen, Carlsbad, CA, USA) supplemented with 20 mM HEPES (Invitrogen) (pH 7.4) was added to each well, and the plates were incubated for 60 min at 37 °C. […] Fluorescence intensity was measured which varied in proportion to the free cytosolic Ca^2+ ion concentration.
# [3] = target: T3, δ-opioid receptor (hδ-OPR) (Homo sapiens, UniProt P41143); test: hδ-OPR functional agonist assay (Ca2+ mobilization, rat basophil leukemia cells); settings: 100 µM; % of control response to 1 µM DPDPE
# T3 construct: host or cells: rat basophil leukemia cells
# T3 sequence (P41143 whole entry): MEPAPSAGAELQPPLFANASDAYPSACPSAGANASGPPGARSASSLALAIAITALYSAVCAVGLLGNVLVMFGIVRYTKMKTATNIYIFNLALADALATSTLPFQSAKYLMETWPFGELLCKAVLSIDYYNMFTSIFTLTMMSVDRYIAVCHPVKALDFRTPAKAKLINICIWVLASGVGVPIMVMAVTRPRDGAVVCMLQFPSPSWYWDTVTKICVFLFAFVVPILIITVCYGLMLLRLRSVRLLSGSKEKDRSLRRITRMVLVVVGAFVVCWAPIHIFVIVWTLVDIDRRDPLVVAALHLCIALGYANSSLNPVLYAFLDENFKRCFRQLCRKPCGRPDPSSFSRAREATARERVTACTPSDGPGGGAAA
# Source text: as §1
# Thereafter, a mixture of fluorescent probe (Fluo8, AAT Bioquest) and probenecid in HBSS buffer (Invitrogen) complemented with 20 mM Hepes (Millipore) (pH 7.4) was added and plates were incubated for 60 min at 30 °C. Then, the assay plates were positioned in a FlipR Tetra microplate reader (Molecular Device, San Jose, CA, USA) for the addition of the test compound, reference agonist/antagonist, or HBSS buffer (basal control). Change in fluorescence intensity that varies proportionally to the free cytosolic Ca^2+ ion concentration was measured.
# [4] = target: h5-HT1BR (Homo sapiens, UniProt P28222); test: h5-HT1BR functional antagonist assay (cAMP, HTRF, Hela cells); settings: HeLa, read-out: Antagonist Effect
# Chain of h5-HT1BR (P28222 whole entry): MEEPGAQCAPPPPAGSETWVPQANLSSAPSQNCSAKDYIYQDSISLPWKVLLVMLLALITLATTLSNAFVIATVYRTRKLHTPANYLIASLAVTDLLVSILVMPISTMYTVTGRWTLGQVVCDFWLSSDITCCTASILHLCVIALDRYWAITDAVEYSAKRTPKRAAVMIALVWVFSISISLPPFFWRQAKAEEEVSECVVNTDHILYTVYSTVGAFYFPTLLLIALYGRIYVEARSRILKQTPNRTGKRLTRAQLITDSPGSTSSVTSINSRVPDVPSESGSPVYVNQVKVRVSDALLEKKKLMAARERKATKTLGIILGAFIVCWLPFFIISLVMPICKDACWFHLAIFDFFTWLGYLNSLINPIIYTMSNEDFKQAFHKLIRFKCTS
# Description: as §1, §2
# Concisely, a plasmid containing the GPCR gene of interest (5-HT1B) was transfected into Hela cells. The resulting stable transfectants were suspended in HBSS buffer (Invitrogen, Carlsbad, CA, USA) containing 20 mM HEPES (pH 7.4), […], 1 mg/mL glucose, and 500 μM IBMX and distributed in microplates at a density of 2 × 10^4 cells/well. […] Then, the cells were lysed and a fluorescence acceptor (D2-labeled cAMP) and fluorescence donor (anti-cAMP antibody with europium cryptate) were added following 60 min incubation at RT.
# [5] = BaF3, read-out: Antagonist Effect
Compound,Agonist Effect ([1]; 12.5 µM),Agonist Effect ([1]; 25 µM),Agonist Effect ([1]; 50 µM),Agonist Effect ([1]; 100 µM),EC50 [1],Antagonist Effect [2],"inhibition at 12.5 µM [2, 5]","inhibition at 25 µM [2, 5]","inhibition at 100 µM [2, 5]",IC50 [2],Agonist Effect [3],inhibition at 100 µM [4],inhibition at 200 µM [4],Agonist Effect ([1]; 150 µM),Agonist Effect ([1]; 200 µM),"inhibition at 200 µM [2, 5]"
"Oc1cc(O)cc(Oc2c(O)cc(O)c3c2Oc2c(O)cc4oc5c(Oc6cc(O)cc(O)c6)c(O)cc(O)c5c4c2O3)c1 [PFF-A, phlorofucofuroeckol-A]",22.03 ± 6.61%,55% and 55.0 ± 9.13%,62.27 ± 6.53%,83.8 ± 0.07%,23.7 ± 3.32 µM,85.55 ± 8.41%,37.4 ± 2.19%,68.2 ± 9.89%,77 ± 11%,17.8 ± 3.42 µM,14.7 ± 7.35%,-18.5 ± 2.69%,-35.5 ± 4.38%,,,
"Oc1cc(O)cc(Oc2c(O)cc(O)c3c2Oc2c(O)cc(Oc4c(O)cc(Oc5c(O)cc(O)c6c5Oc5c(O)cc(O)cc5O6)cc4O)cc2O3)c1 [Dieckol, dieckol]",,,,52.4 ± 4.24%,98.8 ± 7.71 µM,54.7 ± 1.7%,,,91 ± 3.11%,43.3 ± 3.22 µM,−5.7 ± 0.14%,-7.3 ± 3.96%,-8.1 ± 0.85%,73.0 ± 6.42%,74.77 ± 6.60%,100.9 ± 0.57%
